The text below walks through data of ChEMBL document CHEMBL5212743, “Selectivity Literature for EUbOPEN Chemogenomics Library wave 3” (2023).

Experiment [1] addresses T1, STE20-like serine/threonine-protein kinase (Homo sapiens, UniProt Q9H2G2). Kind of experiment: Selectivity interaction (ScanMAX (DiscoverX)) EUB0000232b SLK. The settings on record: at 1 µM.
The target of experiment [2] is T1, STE20-like serine/threonine-protein kinase. Kind of experiment: Selectivity interaction (ScanMAX (DiscoverX, competition-binding assay)) EUB0000232b SLK.
In experiment [3] the test system is Epidermal growth factor receptor (Homo sapiens), P00533 [L858R]. Kind of experiment: (§1) Selectivity interaction (ScanMAX (DiscoverX)) EUB0000232b EGFR. As to conditions: at 1 µM.
Experiment [4] deals with T2, Epidermal growth factor receptor (Homo sapiens, UniProt P00533). The experiment is described as §1. As to conditions: at 1 µM.
T2 sequence (P00533 whole entry): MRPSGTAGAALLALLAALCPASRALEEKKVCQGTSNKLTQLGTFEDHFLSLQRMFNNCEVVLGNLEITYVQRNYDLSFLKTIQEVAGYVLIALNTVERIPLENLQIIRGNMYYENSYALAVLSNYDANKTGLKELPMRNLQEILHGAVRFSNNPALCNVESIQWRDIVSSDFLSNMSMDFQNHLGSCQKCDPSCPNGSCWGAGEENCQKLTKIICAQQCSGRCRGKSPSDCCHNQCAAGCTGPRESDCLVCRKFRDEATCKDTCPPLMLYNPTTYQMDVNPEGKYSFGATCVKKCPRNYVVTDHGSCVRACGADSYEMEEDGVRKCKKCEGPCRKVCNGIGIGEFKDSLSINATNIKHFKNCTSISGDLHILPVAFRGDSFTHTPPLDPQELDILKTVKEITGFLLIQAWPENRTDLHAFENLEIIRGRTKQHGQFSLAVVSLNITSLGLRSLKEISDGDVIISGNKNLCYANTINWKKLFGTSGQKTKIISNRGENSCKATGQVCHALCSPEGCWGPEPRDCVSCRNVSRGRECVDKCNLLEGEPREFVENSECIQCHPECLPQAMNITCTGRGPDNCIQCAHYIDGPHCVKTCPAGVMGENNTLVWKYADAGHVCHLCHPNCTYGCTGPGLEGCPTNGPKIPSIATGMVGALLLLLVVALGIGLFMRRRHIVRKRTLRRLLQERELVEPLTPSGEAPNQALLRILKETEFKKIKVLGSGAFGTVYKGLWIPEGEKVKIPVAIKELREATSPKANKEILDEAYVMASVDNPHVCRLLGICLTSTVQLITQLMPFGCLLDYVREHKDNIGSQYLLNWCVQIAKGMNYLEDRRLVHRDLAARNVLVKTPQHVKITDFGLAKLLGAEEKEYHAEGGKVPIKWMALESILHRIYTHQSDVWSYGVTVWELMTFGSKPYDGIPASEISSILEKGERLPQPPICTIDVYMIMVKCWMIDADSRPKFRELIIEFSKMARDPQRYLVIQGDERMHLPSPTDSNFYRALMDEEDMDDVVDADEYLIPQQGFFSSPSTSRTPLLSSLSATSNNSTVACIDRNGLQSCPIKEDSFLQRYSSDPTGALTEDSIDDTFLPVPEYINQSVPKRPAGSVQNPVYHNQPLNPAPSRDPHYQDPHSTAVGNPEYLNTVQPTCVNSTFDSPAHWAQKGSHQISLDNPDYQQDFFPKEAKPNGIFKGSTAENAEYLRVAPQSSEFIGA
The target in experiment [5] is T2, Epidermal growth factor receptor. Briefly: Selectivity interaction (ScanMAX (DiscoverX, competition-binding assay)) EUB0000232b EGFR.
The target is the same in experiment [6]. The experiment is described as §1. The settings on record: at 1 µM. This is another data set of the same source.
In experiment [7] the target is T3, Tyrosine-protein kinase Lck (Homo sapiens, UniProt P06239). Kind of experiment: Selectivity interaction (ScanMAX (DiscoverX)) EUB0000232b LCK. As to conditions: at 1 µM.
The target in experiment [8] is T3, Tyrosine-protein kinase Lck. Kind of experiment: Selectivity interaction (ScanMAX (DiscoverX, competition-binding assay)) EUB0000232b LCK.
Experiment [9] deals with T4, Tyrosine-protein kinase SYK (Homo sapiens, UniProt P43405). Kind of experiment: Selectivity interaction (ScanMAX (DiscoverX)) EUB0000232b SYK. The settings on record: at 1 µM.
The target of experiment [10] is T4, Tyrosine-protein kinase SYK. Kind of experiment: Selectivity interaction (ScanMAX (DiscoverX, competition-binding assay)) EUB0000232b SYK.
Experiment [11] has as its target Alpha-2A adrenergic receptor (Homo sapiens, UniProt P08913). Kind of experiment: Selectivity interaction (GPCR panel (PDSP screen)) EUB0000327a ADRA2A.
For experiment [12], the target named is Sodium-dependent dopamine transporter (Homo sapiens, UniProt Q01959). Briefly: Selectivity interaction (GPCR panel (PDSP screen)) EUB0000327a SLC6A3.
For experiment [13], the target named is T5, Calcium/calmodulin-dependent protein kinase type 1B (Homo sapiens, UniProt Q6P2M8). Briefly: Selectivity interaction (KinomeScan (DiscoverX)) EUB0000312b PNCK. The settings on record: at 1 µM.
T5 sequence (Q6P2M8 whole entry): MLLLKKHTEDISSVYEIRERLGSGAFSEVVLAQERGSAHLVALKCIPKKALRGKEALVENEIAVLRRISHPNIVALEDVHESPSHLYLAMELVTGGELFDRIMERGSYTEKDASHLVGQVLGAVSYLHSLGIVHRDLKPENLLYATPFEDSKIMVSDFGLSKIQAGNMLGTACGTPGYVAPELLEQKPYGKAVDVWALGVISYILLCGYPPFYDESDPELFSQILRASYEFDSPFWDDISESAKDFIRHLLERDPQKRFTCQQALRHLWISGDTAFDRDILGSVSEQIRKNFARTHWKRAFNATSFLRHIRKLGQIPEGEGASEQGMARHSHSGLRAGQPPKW
For experiment [14], the target named is T5, Calcium/calmodulin-dependent protein kinase type 1B. Briefly: Selectivity interaction (NanoBRET assay (HEK293T cells)) EUB0000312b PNCK. (In general: BRET reads energy transfer from a luciferase to a nearby fluorophore.)
Experiment [15] has as its target Mitogen-activated protein kinase 9 (Homo sapiens, UniProt P45984). Briefly: Selectivity interaction (KinomeScan (DiscoverX)) EUB0000312b MAPK9. As to conditions: at 1 µM.
The target of experiment [16] is T6, Epithelial discoidin domain-containing receptor 1 (Homo sapiens, UniProt Q08345). Briefly: Selectivity interaction (KinomeScan (DiscoverX)) EUB0000312b DDR1. The settings on record: at 1 µM.
T6 sequence (Q08345 whole entry, the tested form may be a part): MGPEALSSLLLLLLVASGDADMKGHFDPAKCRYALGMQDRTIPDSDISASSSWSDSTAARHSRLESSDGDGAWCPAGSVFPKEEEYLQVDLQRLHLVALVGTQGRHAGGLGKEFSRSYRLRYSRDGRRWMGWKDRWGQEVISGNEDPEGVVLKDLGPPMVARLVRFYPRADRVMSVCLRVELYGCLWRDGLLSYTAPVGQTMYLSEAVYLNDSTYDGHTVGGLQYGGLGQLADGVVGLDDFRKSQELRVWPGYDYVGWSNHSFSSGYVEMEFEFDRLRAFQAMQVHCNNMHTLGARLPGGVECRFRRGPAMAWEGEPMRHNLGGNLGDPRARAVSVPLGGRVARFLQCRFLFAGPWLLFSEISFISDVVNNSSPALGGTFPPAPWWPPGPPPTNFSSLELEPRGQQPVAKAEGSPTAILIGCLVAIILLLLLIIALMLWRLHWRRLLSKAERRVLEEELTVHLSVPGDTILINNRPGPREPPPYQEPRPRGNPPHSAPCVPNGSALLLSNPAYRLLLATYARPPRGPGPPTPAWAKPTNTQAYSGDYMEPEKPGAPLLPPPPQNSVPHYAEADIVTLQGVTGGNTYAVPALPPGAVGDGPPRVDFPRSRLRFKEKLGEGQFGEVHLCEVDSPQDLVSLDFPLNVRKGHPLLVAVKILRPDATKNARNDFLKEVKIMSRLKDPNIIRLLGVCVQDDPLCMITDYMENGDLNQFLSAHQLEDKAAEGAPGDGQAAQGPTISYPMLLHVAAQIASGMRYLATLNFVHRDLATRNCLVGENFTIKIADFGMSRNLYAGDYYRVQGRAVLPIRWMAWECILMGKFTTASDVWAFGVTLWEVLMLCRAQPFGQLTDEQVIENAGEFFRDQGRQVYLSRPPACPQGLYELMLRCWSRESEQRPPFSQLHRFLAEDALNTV
The target in experiment [17] is T6, Epithelial discoidin domain-containing receptor 1. Briefly: Selectivity interaction (NanoBRET assay (HEK293T cells)) EUB0000312b DDR1.
Experiment [18] addresses T7, Tyrosine-protein kinase JAK1 (Homo sapiens, UniProt P23458). Briefly: Selectivity interaction (KinomeScan (DiscoverX)) EUB0000312b JAK1@kinase 1. As to conditions: at 1 µM.
For experiment [19], the target named is T7, Tyrosine-protein kinase JAK1. Briefly: Selectivity interaction (NanoBRET assay (HEK293T cells)) EUB0000312b JAK1@kinase 1.
Experiment [20] concerns the target T8, Phosphatidylinositol 4,5-bisphosphate 3-kinase catalytic subunit alpha isoform (Homo sapiens, UniProt P42336). Briefly: Selectivity interaction (KinomeScan (DiscoverX)) EUB0000312b PIK3CA. The settings on record: at 1 µM.
In experiment [21] the target is T8, Phosphatidylinositol 4,5-bisphosphate 3-kinase catalytic subunit alpha isoform. Kind of experiment: Selectivity interaction (NanoBRET assay (HEK293T cells)) EUB0000312b PIK3CA.

T7 sequence (P23458 whole entry): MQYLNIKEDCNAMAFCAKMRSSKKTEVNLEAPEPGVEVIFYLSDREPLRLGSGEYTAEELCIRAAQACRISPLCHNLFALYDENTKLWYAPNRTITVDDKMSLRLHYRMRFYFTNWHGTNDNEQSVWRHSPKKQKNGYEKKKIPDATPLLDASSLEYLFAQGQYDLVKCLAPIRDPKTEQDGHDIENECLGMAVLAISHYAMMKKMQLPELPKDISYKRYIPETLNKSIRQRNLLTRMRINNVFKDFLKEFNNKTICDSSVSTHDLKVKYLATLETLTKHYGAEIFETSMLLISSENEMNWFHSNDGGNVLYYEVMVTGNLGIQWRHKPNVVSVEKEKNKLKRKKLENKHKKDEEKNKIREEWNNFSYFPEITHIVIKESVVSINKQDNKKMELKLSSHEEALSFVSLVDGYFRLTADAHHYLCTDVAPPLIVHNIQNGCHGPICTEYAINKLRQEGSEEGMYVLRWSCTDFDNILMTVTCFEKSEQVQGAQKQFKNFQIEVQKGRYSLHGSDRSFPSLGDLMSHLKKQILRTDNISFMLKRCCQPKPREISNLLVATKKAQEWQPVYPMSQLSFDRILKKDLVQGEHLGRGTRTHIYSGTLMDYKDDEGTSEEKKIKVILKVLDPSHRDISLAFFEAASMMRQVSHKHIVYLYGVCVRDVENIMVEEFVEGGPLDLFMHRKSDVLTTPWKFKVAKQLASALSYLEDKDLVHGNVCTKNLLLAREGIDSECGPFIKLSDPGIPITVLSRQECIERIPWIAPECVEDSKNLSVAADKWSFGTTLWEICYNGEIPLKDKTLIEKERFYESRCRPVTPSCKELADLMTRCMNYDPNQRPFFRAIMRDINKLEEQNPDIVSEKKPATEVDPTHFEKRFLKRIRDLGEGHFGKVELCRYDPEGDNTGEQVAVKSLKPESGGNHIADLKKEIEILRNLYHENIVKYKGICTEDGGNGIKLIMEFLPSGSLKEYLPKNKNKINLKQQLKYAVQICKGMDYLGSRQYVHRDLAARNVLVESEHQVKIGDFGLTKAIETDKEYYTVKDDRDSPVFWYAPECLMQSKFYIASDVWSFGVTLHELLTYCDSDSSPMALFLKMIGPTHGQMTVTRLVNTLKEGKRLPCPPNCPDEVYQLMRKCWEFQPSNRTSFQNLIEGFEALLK
T8 sequence (P42336 whole entry, canonical isoform): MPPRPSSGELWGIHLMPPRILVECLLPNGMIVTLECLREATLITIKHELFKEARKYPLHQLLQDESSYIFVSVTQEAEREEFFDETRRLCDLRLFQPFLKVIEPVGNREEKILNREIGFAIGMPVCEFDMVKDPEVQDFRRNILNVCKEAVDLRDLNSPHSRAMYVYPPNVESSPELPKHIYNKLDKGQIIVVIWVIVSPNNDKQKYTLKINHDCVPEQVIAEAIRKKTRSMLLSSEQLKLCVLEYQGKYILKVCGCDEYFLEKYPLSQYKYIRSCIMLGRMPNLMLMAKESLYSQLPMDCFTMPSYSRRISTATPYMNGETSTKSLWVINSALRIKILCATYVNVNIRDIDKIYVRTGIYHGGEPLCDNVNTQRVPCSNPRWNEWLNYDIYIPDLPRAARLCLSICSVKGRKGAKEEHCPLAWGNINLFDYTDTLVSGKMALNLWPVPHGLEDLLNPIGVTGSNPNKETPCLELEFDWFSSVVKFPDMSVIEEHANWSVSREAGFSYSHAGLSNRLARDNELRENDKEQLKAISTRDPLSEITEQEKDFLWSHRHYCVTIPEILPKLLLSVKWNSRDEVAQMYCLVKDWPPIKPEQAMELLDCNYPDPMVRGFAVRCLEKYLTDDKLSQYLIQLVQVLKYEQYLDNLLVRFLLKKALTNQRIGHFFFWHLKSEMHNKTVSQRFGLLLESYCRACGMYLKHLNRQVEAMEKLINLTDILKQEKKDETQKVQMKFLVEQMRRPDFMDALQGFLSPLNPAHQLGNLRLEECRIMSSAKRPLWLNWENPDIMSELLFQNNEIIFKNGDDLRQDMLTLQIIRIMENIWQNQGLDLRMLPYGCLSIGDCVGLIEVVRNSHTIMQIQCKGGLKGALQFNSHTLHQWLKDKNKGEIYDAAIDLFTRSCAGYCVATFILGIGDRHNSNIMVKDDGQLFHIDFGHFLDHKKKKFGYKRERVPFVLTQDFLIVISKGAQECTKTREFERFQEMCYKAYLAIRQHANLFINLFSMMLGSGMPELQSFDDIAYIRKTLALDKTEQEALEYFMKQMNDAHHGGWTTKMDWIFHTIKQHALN

The term Kd denotes the free concentration of one partner at which half of the binding sites on the other are occupied at equilibrium, for simple one-to-one binding. For `CCCCN(Cc1ccccc1)C(=O)c1ccc(S(=O)(=O)Nc2ccccc2)cc1`, the % of control was 0% in experiment [1]; 0% in [3]; 4.9% in experiment [4]; 0% in experiment [6]; 0% in [7]; 1.7% in experiment [9]. Moreover, the Kd in experiment [2], in experiment [5], in [8] and in experiment [10] was above 10 µM throughout.
The term Ki denotes the equilibrium dissociation constant of an inhibitor or competing ligand from its target. In the case of `O=C(NNS(=O)(=O)c1ccccc1)c1cc(-c2ccnnc2)ccc1F` [WM-2474], the inhibition constant Ki in experiment [11] and in experiment [12] was above 10 µM in each case.
In general, IC50 refers to the point on the concentration scale where inhibition reaches its midpoint. For the molecule `Cc1cnc(-c2cc(Cl)ccc2F)cc1-n1c(=O)n(CC(N)=O)c2cnccc21` [TP-008], the % of control stood at 39.5% in experiment [13]; 39.6% in experiment [15]; 36.7% in experiment [16]; 38.6% in experiment [18]; 33.9% in [20]. Moreover, the IC50 in experiment [14], in experiment [17], in experiment [19] and in experiment [21] was above 20 µM in each case.
